# Source: US20110172305A1, “Endocannabinoids for Enhancing Growth and Development in Infants” (priority 2007, published 2011)
# Assays:
# [1] = Food intake ('milkbands') of pups raised in small or large litters; format: in vivo, mouse (ICR strain); settings: THC 1 or 5 mg/kg, daily injections for the first 5 days of life
# Experimental: (§1) Using an environmental manipulation technique, within 24 hours of birth, half of each mouse litter (ICR strain) was cross-fostered to the dam of another litter born on the same day. The mouse pups of every two litters were divided up between the 2 dams such that one dam reared 4 pups (‘small litter’) and the other dam raised 18-20 pups (large litter). Pups raised in the large litter were expected to suffer from malnutrition due to the crowded environment. Half of each litter received daily injections of the endocannabinoid 2-arachidonoyl glycerol (2-AG) or THC, the major psychoactive molecule in the Cannabis sativa (marihuana) plant for the first 5 days of life. The doses used were 1 or 5 mg/kg THC or 0.1, 1 or 5 mg/kg 2-AG. Body weights were recorded daily. The body weight of pups from the small and the large litters were analyzed by two-way analysis-of-variance.
# On each subsequent day, pups were briefly separated from their mothers for the duration of weighing and scoring of the presence of “milkbands” in their stomachs. (As the stomach area in mouse pups is transparent, due to lack of hair and the thinness of the skin, the amount of milk consumed can be observed as a “milkband”).
# [2] = Body weight of pups raised in small or large (malnourished) litters, daily neonatal injections; format: in vivo, mouse (ICR strain)
# Experimental: as §1
# [3] = Motor activity (ambulation) in an open field at 3 months of age; format: in vivo, mouse (ICR strain); settings: tested at 3 months of age
# Experimental: (§2) At adulthood (3 months of age), mice were subjected to the open field assay for motor activity (ambulation and rearing), to the Porsolt forced swim test for anti-depressant-like effects and to the prepulse-inhibited acoustic startle response (PPI) assay which assesses sensorimotor gating.
# Motor activity in an Open field: Mice were placed in a transparent open field (30×40 cm, divided into 20 squares of equal size), measuring horizontal (ambulatory) and vertical activity, for 6 minutes (min), by manually scoring the number of squares crossed (see (Fride and Mechoulam, 1993).
# The bottom of the open field was divided into 20 squares of equal size. Activity was assessed as the number of squares crossed.
# [4] = Prepulse inhibition (PPI) of the acoustic startle response; format: in vivo, mouse; settings: treated at birth; FIG. 7
# Experimental: Prepulse Inhibition (PPI) of the startle reflex: In this experimental model a weak stimulus (70-90 db tone) inhibits the subsequent response to a strong stimulus (120 db tone). Reduced prepulse inhibition of the startle reflex (PPI) is taken as an additional index of the positive symptoms of schizophrenia (Josselyn and Vaccarino, 1998; Swerdlow and Geyer, 1998). PPI was assessed as described previously (Varty et al., 2001). In the model employed, mice were placed in a startle chamber (Hamilton and Kinder, Poway, Calif., USA). A high frequency loudspeaker produces a 65 db background noise and the various acoustic stimuli: 77 and 81 db prepulse; 120 db startle, separated by 100 ms. The startle response of the mouse is transduced and stored by a computer. Sixty-five readings are taken at 1 ms intervals, and the average amplitude is taken as the startle response. Each test session lasts for about 20 min and consists of 10 presentations of each of the six trial types (Prepulse, Prepulse+Pulse, Pulse or no stimulus other than background) separated by 15 s. The amount of prepulse inhibition is calculated as %PPI=[1-(startle response for Prepulse+Pulse)/(startle response for Pulse alone)]×100.
# [5] = Growth and survival of newborn Spiny wild mice; format: in vivo, Spiny wild mice (acomys cahirinus); settings: 50 mg/kg
# Description: FIG. 9A illustrates the relative state of maturation in terms of the growth curve during the first two postnatal weeks in laboratory (ICR strain) mice, compared to Spiny wild mice (acomys cahirinus) which is born at a more advanced stage of development. […] This is similar to the difference in brain maturation predicted by the model designed by Clancy and colleagues (Clancy et al., 2007), i.e., the day of birth of the spiny mouse being equivalent to postnatal day 8 in the laboratory mouse.
# [6] = Intracerebral versus subcutaneous injection, pup body weight gain; format: in vivo, mouse (ICR strain); settings: day 1 of birth, FIG. 8A-E
# Experimental: Newborn (day 1 of birth) mouse pups (ICR strain) were injected subcutaneously (sc) with SR141716 (SR, 20 or 40 mg/kg), as described previously (Fride, 2004; Fride et al., 2003; Fride et al., 2001). In addition, littermates were injected with SR directly into the brain, at 2 depths (2-3 mm) and at several doses 4.5, 9.0 or 22.5 μg (between 50 and 10-fold lower concentrations than the sc injections).
# [7] = Porsolt forced swim test at adulthood; format: in vivo, mouse (ICR strain); settings: treated in infancy, tested at adulthood; FIG. 3A
# Description: as §2
# Porsolt forced swim test: The forced swimming test was based on previous designs (Harkin et al., 2004; Petit-Demouliere et al., 2005; Treit and Menard, 1998): mice were placed in a 2 liter glass beaker (11 cm diameter) filled with water (24+1° C.) up to […] from the bottom (so that the mouse could not touch the bottom) and 8 cm from the rim (so that the mouse cannot escape). […] Immobility at 9 min was analyzed by a t-test, P<0.05.
structure (smiles),measurement,setting,value
"CCCCCc1cc(O)c2c(c1)OC(C)(C)[C@@H]1CCC(C)=C[C@@H]21 [THC, Δ^9-tetrahydrocannabinol]",effect on food intake ('milkbands'),[1],Neither of the doses of THC had an effect
same,effect on the body weight curve,"[2]; THC 1 or 5 mg/kg, daily injections for the first 5 days of life",Neither of the doses of THC had an effect
Cc1c(C(=O)NN2CCCCC2)nn(-c2ccc(Cl)cc2Cl)c1-c1ccc(Cl)cc1 [Rimonabant],motor activity in open field (number of squares crossed),"[3]; rimonabant at birth, ICR strain, FIG. 6, P<0.001",hyperactive
same,"sensorimotor gating, prepulse inhibition of acoustic startle response (% PPI) versus vehicle control",[4],significantly lower
same,growth (body weight),"[5]; FIG. 9B, P<0.0001",highly significant delay in growth
same,mortality rate,"[5]; FIG. 9C, P<0.01 versus controls",60%
same,effect on pup growth,"[6]; injected directly into the brain, 2-3 mm depth, 4.5, 9.0 or 22.5 μg",none of the centrally injected regimens had any effect on pup growth
same,body weight gain,[6]; s.c. 20 or 40 mg/kg,significantly retarded body weight gain
"CCCCC/C=C\C/C=C\C/C=C\C/C=C\CCCC(=O)OC(CO)CO [2-AG, 2-arachidonoyl glycerol]",motor activity in open field (number of squares crossed),"[3]; 2-AG at birth, FIG. 3B",did not differ from that of controls
same,effect on the growth curve,"[2]; 0.1 mg/kg (lowest dose), daily injections for the first 5 days of life",no effect on the growth curve
same,body weight gain,"[2]; 1 mg/kg, daily injections for the first 5 days of life, malnourished (overcrowded) litters, FIG. 1",significantly enhanced body weight gain
same,effect on the growth curve,"[2]; 5 mg/kg (highest dose), daily injections for the first 5 days of life",no effect on the growth curve
same,body weight at 3 months of age versus control mice from large (malnourished) litter,"[2]; treated as neonates, large litter, FIG. 2",still had elevated body weights
same,body weight at 3 months of age versus vehicle-treated mice raised in small litters,"[2]; treated as neonates, overcrowded litter, FIG. 2",did not differ significantly
same,behavior in the Forced swim test (immobility time),[7],displayed anti-depressant-like behavior
